Paper PMC6842385, “Identifying new topoisomerase II poison scaffolds by combining publicly available toxicity data and 2D/3D-based virtual screening” (Journal of Cheminformatics, 2019)

System: T1, Top2
T1 construct: gene TOP2A; Top2 used in TopoGEN decatenation assay
Assay: kDNA decatenation assay, agarose gel
Format: biochemical
Conditions: kinetoplast DNA 0.2 μg in 20 μl, 5 mM ATP, 10 mM MgCl2, 150 mM NaCl, pH 8.0, 37 °C, 30 min
Text: kDNA decatenation assay, agarose gel on Top2

| IC50 [µM] | Structure (SMILES) | IC50 (positive control) [µM] |
| --- | --- | --- |
| > 100 | CCN(CC)CCNc1ccc2ncn3c4c(OC)ccc(OC)c4c(=O)c1c23 [compound 660839, NSC660839] | – |
| 12.1 | COc1cccc2c(N)c3cccc(C(=O)NCCN(C)C)c3nc12 [compound 691240, NSC691240] | – |

Further lines, the compound ahead of its results:

| Structure (SMILES) | IC50 [µM] | IC50 (positive control) [µM] |
| --- | --- | --- |
| O=C1c2c(O)ccc(O)c2C(=O)c2c(NCCNCCO)ccc(NCCNCCO)c21 [compound 301739, mitoxantrone] | – | 3.3 |
| CCN(CC)CCNc1ccc(C)c2sc3ccc(O)cc3c(=O)c12 [compound 317921, NSC317921] | 7.5 | – |
| CCN(CC)CCNc1ccc2nc(C)n3c4ccc(O)cc4c(=O)c1c23 [compound 637992, NSC637992] | 3.3 | – |
